Laboratory results from PubChem BioAssay (NCI).
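Cultured in 96-well plates, cells were exposed to test compound for 48 hours across five concentrations. GI50 is the concentration that inhibits growth by half. TGI: total growth inhibition.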

Experiments:
Experiment in all cases: NCI-60 cell line screen, 48 h
SF-268 CNS = system: SF-268 CNS
HOP-62 NSCLC = system: HOP-62 NSCLC
OVCAR-5 ovarian = system: OVCAR-5 ovarian
K-562 leukemia = system: K-562 leukemia
SK-MEL-2 melanoma = system: SK-MEL-2 melanoma
MOLT-4 leukemia = system: MOLT-4 leukemia
ACHN renal = system: ACHN renal
NCI-H460 lung = system: NCI-H460 lung
SN12C renal = system: SN12C renal
SNB-19 CNS = system: SNB-19 CNS
SW-620 colon = system: SW-620 colon
MDA-MB-231 breast = system: MDA-MB-231 breast
SK-OV-3 ovarian = system: SK-OV-3 ovarian
T-47D breast = system: T-47D breast
HS 578T breast = system: HS 578T breast
SK-MEL-5 melanoma = system: SK-MEL-5 melanoma
TK-10 renal = system: TK-10 renal
CAKI-1 renal = system: CAKI-1 renal
COLO 205 colon = system: COLO 205 colon
LOX IMVI melanoma = system: LOX IMVI melanoma
RXF 393 renal = system: RXF 393 renal
OVCAR-4 ovarian = system: OVCAR-4 ovarian
NCI-H23 lung = system: NCI-H23 lung
RPMI-8226 leukemia = system: RPMI-8226 leukemia
UACC-62 melanoma = system: UACC-62 melanoma
HL-60(TB) leukemia = system: HL-60(TB) leukemia
SNB-75 CNS = system: SNB-75 CNS
NCI/ADR-RES ovarian = system: NCI/ADR-RES ovarian
A498 renal = system: A498 renal
PC-3 prostate = system: PC-3 prostate
MCF7 breast = system: MCF7 breast
CCRF-CEM leukemia = system: CCRF-CEM leukemia
SK-MEL-28 melanoma = system: SK-MEL-28 melanoma
SF-295 CNS = system: SF-295 CNS
SF-539 CNS = system: SF-539 CNS
786-0 renal = system: 786-0 renal
NCI-H522 lung = system: NCI-H522 lung
MALME-3M melanoma = system: MALME-3M melanoma
HT29 colon = system: HT29 colon
NCI-H226 lung = system: NCI-H226 lung
OVCAR-8 ovarian = system: OVCAR-8 ovarian
A549 NSCLC = system: A549 NSCLC
KM12 colon = system: KM12 colon
HCC-2998 colon = system: HCC-2998 colon
UACC-257 melanoma = system: UACC-257 melanoma
U251 CNS = system: U251 CNS
HCT-116 colon = system: HCT-116 colon
UO-31 renal = system: UO-31 renal
EKVX NSCLC = system: EKVX NSCLC
M14 melanoma = system: M14 melanoma
HCT-15 colon = system: HCT-15 colon
DU-145 prostate = system: DU-145 prostate
IGROV1 ovarian = system: IGROV1 ovarian
HOP-92 NSCLC = system: HOP-92 NSCLC
OVCAR-3 ovarian = system: OVCAR-3 ovarian
MDA-MB-435 = system: MDA-MB-435

CCOC(=O)CCCn1c(SC)nc2cc(-c3ccco3)[nH]c2c1=O
GI50 (SF-268 CNS): 52.7 µM | TGI (SF-268 CNS): > 100 µM | GI50 (HOP-62 NSCLC): 37 µM | TGI (HOP-62 NSCLC): > 100 µM | GI50 (OVCAR-5 ovarian): > 100 µM | TGI (OVCAR-5 ovarian): > 100 µM | GI50 (K-562 leukemia): > 100 µM | TGI (K-562 leukemia): > 100 µM | GI50 (SK-MEL-2 melanoma): 36.4 µM | TGI (SK-MEL-2 melanoma): > 100 µM | GI50 (MOLT-4 leukemia): > 100 µM | TGI (MOLT-4 leukemia): > 100 µM | GI50 (ACHN renal): 31.7 µM | TGI (ACHN renal): > 100 µM | GI50 (NCI-H460 lung): > 100 µM | TGI (NCI-H460 lung): > 100 µM | GI50 (SN12C renal): 81.8 µM | TGI (SN12C renal): > 100 µM | GI50 (SNB-19 CNS): 19.8 µM | TGI (SNB-19 CNS): 65.6 µM | GI50 (SW-620 colon): > 100 µM | TGI (SW-620 colon): > 100 µM | GI50 (MDA-MB-231 breast): 28 µM | TGI (MDA-MB-231 breast): 81.2 µM | GI50 (SK-OV-3 ovarian): 5.74 µM | TGI (SK-OV-3 ovarian): 32.5 µM | GI50 (T-47D breast): 39.6 µM | TGI (T-47D breast): > 100 µM | GI50 (HS 578T breast): 25.6 µM | TGI (HS 578T breast): > 100 µM | GI50 (SK-MEL-5 melanoma): > 100 µM | TGI (SK-MEL-5 melanoma): > 100 µM | GI50 (TK-10 renal): 35.1 µM | TGI (TK-10 renal): > 100 µM | GI50 (CAKI-1 renal): 25.8 µM | TGI (CAKI-1 renal): 90.4 µM | GI50 (COLO 205 colon): > 100 µM | TGI (COLO 205 colon): > 100 µM | GI50 (LOX IMVI melanoma): 57.8 µM | TGI (LOX IMVI melanoma): > 100 µM | GI50 (RXF 393 renal): 12 µM | TGI (RXF 393 renal): 30.6 µM | GI50 (OVCAR-4 ovarian): > 100 µM | TGI (OVCAR-4 ovarian): > 100 µM | GI50 (NCI-H23 lung): 90.5 µM | TGI (NCI-H23 lung): > 100 µM | GI50 (RPMI-8226 leukemia): > 100 µM | TGI (RPMI-8226 leukemia): > 100 µM | GI50 (UACC-62 melanoma): 22.5 µM | TGI (UACC-62 melanoma): 68.3 µM | GI50 (HL-60(TB) leukemia): > 100 µM | TGI (HL-60(TB) leukemia): > 100 µM | GI50 (SNB-75 CNS): 4.55 µM | TGI (SNB-75 CNS): 17.7 µM | GI50 (NCI/ADR-RES ovarian): 72.9 µM | TGI (NCI/ADR-RES ovarian): > 100 µM | GI50 (A498 renal): 27.4 µM | TGI (A498 renal): 76 µM | GI50 (PC-3 prostate): > 100 µM | TGI (PC-3 prostate): > 100 µM | GI50 (MCF7 breast): > 100 µM | TGI (MCF7 breast): > 100 µM | GI50 (CCRF-CEM leukemia): > 100 µM | TGI (CCRF-CEM leukemia): > 100 µM | GI50 (SK-MEL-28 melanoma): > 100 µM | TGI (SK-MEL-28 melanoma): > 100 µM | GI50 (SF-295 CNS): 16.7 µM | TGI (SF-295 CNS): 54.8 µM | GI50 (SF-539 CNS): 20.4 µM | TGI (SF-539 CNS): 53.2 µM | GI50 (786-0 renal): 34.2 µM | TGI (786-0 renal): > 100 µM | GI50 (NCI-H522 lung): 35.1 µM | TGI (NCI-H522 lung): > 100 µM | GI50 (MALME-3M melanoma): > 100 µM | TGI (MALME-3M melanoma): > 100 µM | GI50 (HT29 colon): > 100 µM | TGI (HT29 colon): > 100 µM | GI50 (NCI-H226 lung): > 100 µM | TGI (NCI-H226 lung): > 100 µM | GI50 (OVCAR-8 ovarian): 31.1 µM | TGI (OVCAR-8 ovarian): > 100 µM | GI50 (A549 NSCLC): > 100 µM | TGI (A549 NSCLC): > 100 µM | GI50 (KM12 colon): > 100 µM | TGI (KM12 colon): > 100 µM | GI50 (HCC-2998 colon): > 100 µM | TGI (HCC-2998 colon): > 100 µM | GI50 (UACC-257 melanoma): > 100 µM | TGI (UACC-257 melanoma): > 100 µM | GI50 (U251 CNS): 17.1 µM | TGI (U251 CNS): 56 µM | GI50 (HCT-116 colon): 49.8 µM | TGI (HCT-116 colon): > 100 µM | GI50 (UO-31 renal): 72.6 µM | TGI (UO-31 renal): > 100 µM | GI50 (EKVX NSCLC): 65.9 µM | TGI (EKVX NSCLC): > 100 µM | GI50 (M14 melanoma): > 100 µM | TGI (M14 melanoma): > 100 µM | GI50 (HCT-15 colon): > 100 µM | TGI (HCT-15 colon): > 100 µM | GI50 (DU-145 prostate): > 100 µM | TGI (DU-145 prostate): > 100 µM | GI50 (IGROV1 ovarian): 19.6 µM | TGI (IGROV1 ovarian): 76.6 µM | GI50 (HOP-92 NSCLC): 25.6 µM | TGI (HOP-92 NSCLC): 65.7 µM | GI50 (OVCAR-3 ovarian): 48.2 µM | TGI (OVCAR-3 ovarian): > 100 µM | GI50 (MDA-MB-435): > 100 µM | TGI (MDA-MB-435): > 100 µM
